In patent publication US6812335B1, “Human polypeptide receptors for lysophospholipids and sphingolipids and nucleic acids encoding the same” (The Regents of the University of California, priority 1999, dated 2004):
Where “and” joins values, the source holds several entries; their conditions need not be identical. Equal values may be shown once. Read-outs that look alike come from different tables or passages of the source. Values belong to the compound of their own block, whether it stands above or below them.

Assays:
[1] = test system: MDA-MB-453 BCCs; test: SRE-firefly luciferase reporter assay in MDA-MB-453 BCCs; format: cell-based, human; conditions: for mean maximal increase of luciferase luminometric activity: 10^−10 M to 10^−6 M lipid, 4 h
[2] = test system: MCF-7 BCCs; test: SRE-firefly luciferase reporter assay in MCF-7 BCCs; format: cell-based, human; conditions: for maximal increase of mean luciferase luminometric activity: 10^−10 M to 10^−6 M lipid, 4 h
[3] = test system: MCF-7 BCC; test: MCF-7 BCC secretion of IGF-II; format: cell-based, human
[4] = test system: Tsup-1 cells; conditions: cited from earlier work
[5] = test system: Tsup-1 cells; test: Anti-Fas antibody-induced apoptosis of Tsup-1 cell transfectants (DNA endlabeling)
[6] = molecular target: T1, Edg4 (Homo sapiens, UniProt Q9HBW0); test: SRE-luciferase reporter gene assay in Edg4-transfected Jurkat cells; format: cell-based
T1 construct: The Edg4 protein consists of 382 amino acids with an estimated molecular weight of 42,626 daltons; expressed in transfected cells; host or cells: Jurkat leukemic T cells, transient transfection with Edg4/EF3 (pCDEF3 vector)
T1 sequence (Q9HBW0 with tags, fused parts or gaps): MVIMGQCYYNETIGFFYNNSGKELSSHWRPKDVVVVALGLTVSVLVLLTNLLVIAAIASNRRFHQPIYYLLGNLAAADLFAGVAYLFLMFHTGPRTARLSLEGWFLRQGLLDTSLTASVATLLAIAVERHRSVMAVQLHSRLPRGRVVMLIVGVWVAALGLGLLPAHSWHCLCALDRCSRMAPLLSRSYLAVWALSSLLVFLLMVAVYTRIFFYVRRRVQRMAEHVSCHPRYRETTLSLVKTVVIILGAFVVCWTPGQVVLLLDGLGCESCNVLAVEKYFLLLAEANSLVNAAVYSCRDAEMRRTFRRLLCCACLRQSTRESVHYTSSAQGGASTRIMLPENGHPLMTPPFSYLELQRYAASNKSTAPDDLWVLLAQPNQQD

[7] = molecular target: T2, Edg2 (Homo sapiens, UniProt Q92633); test: SRE-luciferase reporter gene assay in Edg2-transfected Jurkat cells; format: cell-based; conditions: for EC50: 10-h incubation, read-out: EC50 of activation of SRE-driven reporter gene
T2 construct: the 1.1-kb cDNA coding region of human Edg2 was cleaved from Edg2/RSV (An et al., supra) and also subcloned into pCDEF3; expressed in transfected cells; host or cells: Jurkat leukemic T cells, transient transfection with Edg2/EF3 (pCDEF3 vector)
T2 sequence (Q92633 whole entry): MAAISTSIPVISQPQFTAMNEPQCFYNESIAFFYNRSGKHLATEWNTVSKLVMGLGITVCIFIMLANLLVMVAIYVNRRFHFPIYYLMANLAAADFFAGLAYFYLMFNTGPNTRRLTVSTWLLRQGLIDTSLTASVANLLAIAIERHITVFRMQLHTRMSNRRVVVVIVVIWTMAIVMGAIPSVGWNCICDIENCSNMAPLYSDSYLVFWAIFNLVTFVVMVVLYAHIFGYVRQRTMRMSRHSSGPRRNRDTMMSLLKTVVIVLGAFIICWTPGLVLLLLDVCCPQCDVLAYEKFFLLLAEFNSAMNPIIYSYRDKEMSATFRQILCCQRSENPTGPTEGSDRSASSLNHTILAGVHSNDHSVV

[8] = test system: control vector-transfected Jurkat cells; test: [3H]LPA binding in control vector-transfected Jurkat cells
Description: (§1) Jurkat T cells (2×10^7 in OPTI-MEM) were transfected with 2 μg of Edg4/EF3 or empty pCDEF3 vector for 4 hours at 37° C. using Lipofectin (Life Technologies, Inc). The transfected cells were maintained in RPMI 1640 medium containing 10% fetal bovine serum for 12 hours at 37° C. and washed three times with phosphate-buffered saline (PBS) before assessment of binding. Duplicate 0.2-ml aliquots of 2×10^6 cells were incubated with 200,000 cpm of ]^3H] LPA in 0.25% bovine serum albumnin-phosphate-buffered saline binding buffer for 45 minutes at 0° C. The final concentration of [^3H]LPA in the binding incubations was 10 nM. The binding cell suspensions were passed through GFIC filters that were washed with 12 ml of ice-cold PBS containing 0.05% Tween-20, air-dried, and added to scintillation fluid for quantification of radioactivity bound to the cells. Total and nonspecific binding were evaluated in the absence and the presence of 10 μM nonradioactive LPA, respectively. Specific binding was calculated from the difference in cpm between total binding and nonspecific binding.

[9] = test system: Jurkat cells transfected with empty pCDEF3 vector; format: cell-based; conditions: control Jurkat cells
[10] = test system: Edg4; test: SRE-luciferase reporter gene assay in Edg4-transfected Jurkat cells; format: cell-based, human; conditions: Edg4 versus Edg2 transfectants
[11] = molecular target: T1, Edg4; test: [3H]LPA receptor binding assay in Edg4-transfected Jurkat cells; conditions: Edg4 transfectants
Description: as §1

[12] = Edg-2 & -4 antisense pretreatment, lipid 10^−8 M
[13] = Sham transfectants, lipid 10^−8 M, anti-Fas alone = 100%
[14] = Sham transfectants, lipid 10^−9 M, anti-Fas alone = 100%
[15] = 1 μM lipid, Edg4-transfected Jurkat cells
[16] = 1 μM lipid, Edg2-transfected Jurkat cells

Compound: COc1cccc(-c2cc(=O)c3ccccc3o2)c1N [MEK, 2′-amino-3′-methoxyflavone]
- percentage inhibition of the control SRE reporter response to LPA ([1]; 10^−7 M LPA, serum-free DMEM): 69%
- percentage inhibition of the control SRE reporter response to S1P ([1]; 10^−7 M S1P, serum-free DMEM): 61%
- percentage inhibition of the control SRE reporter response to LPA ([2]; 10^−7 M LPA, serum-free DMEM): 41%
- percentage inhibition of the control SRE reporter response to S1P ([2]; 10^−7 M S1P, serum-free DMEM): 37%
- inhibition of LPA- and S1P-stimulated secretion of IGF-II [3]: inhibited

Compound: CCCCCCCCCCCCC/C=C/[C@@H](O)[C@@H](N)COP(=O)(O)O [S1P, sphingosine 1-phosphate]
- mean maximal increase of luciferase luminometric activity [1]: 26 fold
- effect on apoptosis evoked by C6-ceramide [4]: suppressed significantly
- effect on apoptosis induced by anti-Fas antibody and a combination of anti-CD3 and anti-CD28 antibodies [4]: prevent apoptosis
- percentage of control apoptosis [5, 12]: 22%
- percentage of control apoptosis ([5]; Edg-3 & -5 antisense pretreatment, lipid 10^−8 M): 39% and 33%
- percentage of control apoptosis ([5]; Edg-3 & -5 antisense pretreatment, lipid 10^−9 M): 53%
- percentage of control apoptosis [5, 13]: 18%
- percentage of control apoptosis [5, 14]: 30%
- maximal increase of mean luciferase luminometric activity [2]: ≤ 85 fold
- effect on secretion of IGF-II [3]: Stimulation
- increase in luciferase expression [6]: failed to generate significant increases
- increase in luciferase expression [7]: failed to generate significant increases

Compound: Lysophosphatidic acid [LPA]
- mean maximal increase of luciferase luminometric activity [1]: 24 fold
- number of LPA-binding sites (receptor density) [8]: 15,000±1300
- effect on apoptosis evoked by C6-ceramide [4]: not
- effect on apoptosis induced by anti-Fas antibody and a combination of anti-CD3 and anti-CD28 antibodies [4]: prevent apoptosis
- percentage of control apoptosis [5, 12]: 61%
- percentage of control apoptosis ([5]; Edg-2 & -4 antisense pretreatment, lipid 10^−9 M): 69%
- percentage of control apoptosis [5, 13]: 31%
- percentage of control apoptosis [5, 14]: 51%
- maximal increase of mean luciferase luminometric activity [2]: up to 37 fold
- effect on secretion of IGF-II [3]: Stimulation
- change in SRE-luciferase response [9]: minimal changes
- magnitude of evoked SRE-driven reporter activation of Edg4 relative to that of Edg2 [10]: approximately four times higher
- EC50 ([7]; Edg2-transfected Jurkat cells): ~10 nM
- number of LPA-binding sites (receptor density) [11]: 33,000±3200

- increase in luciferase expression [6, 15]: failed to generate significant increases
- increase in luciferase expression [7, 16]: failed to generate significant increases
Compound: lysophosphatidyl-choline

- increase in luciferase expression [6, 15]: failed to generate significant increases
- increase in luciferase expression [7, 16]: failed to generate significant increases
Compound: lysophosphatidyl-ethanolamine

- increase in luciferase expression [6, 15]: failed to generate significant increases
- increase in luciferase expression [7, 16]: failed to generate significant increases
Compound: lysophosphatidyl-serine

- EC50 ([6]; Edg4-transfected Jurkat cells, 10-h incubation, read-out: EC50 of activation of SRE-driven reporter gene): ≥ 500 nM
- EC50 ([7]; Edg2-transfected Jurkat cells): ≥ 500 nM
Compound: phosphatidic acid [PA]
- magnitude of evoked SRE-driven reporter activation of Edg4 relative to that of Edg2 [10]: approximately four times higher
